Laboratory results taken from ChEMBL document CHEMBL1121377, “Synthesis and biological activities of chloroethylurea, methylurea, and nitrosourea analogues of N-deacetylmethylthiocolchicine” (1980).
pEC50: −log10 of the molar value.

Legend:
Assay type in all cases: functional
Human alphaherpesvirus 1 [1] = test: Percent inhibition of herpes simplex type-1 virus at the concentration of 1 uM
[2] = In vitro inhibitory activity against Sarcoma 180 cells; settings: Mus musculus, read-out: ED50 (the source's name)
L1210 = test: In vitro inhibitory activity against murine leukemia L1210 cells; settings: Mus musculus, read-out: ED50 (the source's name)
Human alphaherpesvirus 1 [3] = test: Percent inhibition of herpes simplex type-1 virus at the concentration of 20 uM
Human alphaherpesvirus 1 [4] = test: Percent inhibition of herpes simplex type-1 virus at the concentration of 10 uM
Human alphaherpesvirus 1 [5] = test: Percent inhibition of herpes simplex type-1 virus at the concentration of 175 uM
Human alphaherpesvirus 1 [6] = test: Percent inhibition of herpes simplex type-1 virus at the concentration of 50 uM

pEC50 [2]	pEC50 (L1210)	Structure (SMILES)	other results
7.52	7.80	COc1cc2c(c(OC)c1OC)-c1ccc(SC)c(=O)cc1C(NC(=O)NCCCl)CC2 (centres undefined)	inhibition at 20 µM (Human alphaherpesvirus 1 [3]): 72%
7.59	7.74	COc1cc2c(c(OC)c1OC)-c1ccc(SC)c(=O)cc1C(NC(=O)N(C)N=O)CC2 (centres undefined)	inhibition at 10 µM (Human alphaherpesvirus 1 [4]): 86%
7.54	7.48	CNC(=O)NC1CCc2cc(OC)c(OC)c(OC)c2-c2ccc(SC)c(=O)cc21 (centres undefined)	inhibition at 175 µM (Human alphaherpesvirus 1 [5]): 85%

Continued, compound first:

Structure (SMILES)	pEC50 [2]	pEC50 (L1210)	other results
COc1cc2c(c(OC)c1OC)-c1ccc(SC)c(=O)cc1C(NC(=O)N(CCCl)N=O)CC2 (centres undefined)	7.57	7.92	inhibition at 1 µM (Human alphaherpesvirus 1 [1]): 76%
O=c1[nH]c(=O)n([C@H]2C[C@H](O)[C@@H](CO)O2)cc1I [IDOXURIDINE]			inhibition at 50 µM (Human alphaherpesvirus 1 [6]): 99.3%
O=NN(CCCl)C(=O)NCCCl [CARMUSTINE]		5.40	
